In PMC9876986, “Direct cell extraction of membrane proteins for structure–function analysis” (Scientific Reports, 2023):

Target: T1, mouse PANX1 (pannexin1) (Mus musculus, UniProt Q9JIP4)
T1 construct: wildtype mouse PANX1, untagged, in His-tagged Salipro nanoparticles
Experiment: SPR on immobilized His-Salipro-mPANX1, empty particles as reference
Assay type: binding

T1 sequence (Q9JIP4 whole entry): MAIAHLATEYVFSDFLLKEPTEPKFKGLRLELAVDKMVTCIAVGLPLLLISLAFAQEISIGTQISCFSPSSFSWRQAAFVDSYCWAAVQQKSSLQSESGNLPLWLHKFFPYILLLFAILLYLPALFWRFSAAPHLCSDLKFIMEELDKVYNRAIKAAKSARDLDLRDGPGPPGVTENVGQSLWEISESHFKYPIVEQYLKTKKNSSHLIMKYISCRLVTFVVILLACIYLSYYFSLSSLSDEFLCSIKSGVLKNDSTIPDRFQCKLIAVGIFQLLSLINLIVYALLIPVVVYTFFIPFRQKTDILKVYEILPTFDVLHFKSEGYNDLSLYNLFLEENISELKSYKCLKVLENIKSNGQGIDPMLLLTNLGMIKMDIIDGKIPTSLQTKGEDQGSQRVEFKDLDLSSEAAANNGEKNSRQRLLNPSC

- Kd: 160 µM
Compound: CC(=O)S[C@@H]1CC2=CC(=O)CC[C@]2(C)[C@H]2CC[C@@]3(C)[C@@H](CC[C@@]34CCC(=O)O4)[C@H]12 [spironolactone]
